Experimental findings from patent publication US8389557B2, “Triazole derivatives useful as Axl inhibitors” (Rigel Pharmaceuticals, Inc., priority 2005, dated 2013) are described below.

The target of one experiment is T1, Axl (Homo sapiens, UniProt P30530).
T1 construct: endogenous in cells; host or cells: HeLa cells
T1 sequence (P30530 26-894): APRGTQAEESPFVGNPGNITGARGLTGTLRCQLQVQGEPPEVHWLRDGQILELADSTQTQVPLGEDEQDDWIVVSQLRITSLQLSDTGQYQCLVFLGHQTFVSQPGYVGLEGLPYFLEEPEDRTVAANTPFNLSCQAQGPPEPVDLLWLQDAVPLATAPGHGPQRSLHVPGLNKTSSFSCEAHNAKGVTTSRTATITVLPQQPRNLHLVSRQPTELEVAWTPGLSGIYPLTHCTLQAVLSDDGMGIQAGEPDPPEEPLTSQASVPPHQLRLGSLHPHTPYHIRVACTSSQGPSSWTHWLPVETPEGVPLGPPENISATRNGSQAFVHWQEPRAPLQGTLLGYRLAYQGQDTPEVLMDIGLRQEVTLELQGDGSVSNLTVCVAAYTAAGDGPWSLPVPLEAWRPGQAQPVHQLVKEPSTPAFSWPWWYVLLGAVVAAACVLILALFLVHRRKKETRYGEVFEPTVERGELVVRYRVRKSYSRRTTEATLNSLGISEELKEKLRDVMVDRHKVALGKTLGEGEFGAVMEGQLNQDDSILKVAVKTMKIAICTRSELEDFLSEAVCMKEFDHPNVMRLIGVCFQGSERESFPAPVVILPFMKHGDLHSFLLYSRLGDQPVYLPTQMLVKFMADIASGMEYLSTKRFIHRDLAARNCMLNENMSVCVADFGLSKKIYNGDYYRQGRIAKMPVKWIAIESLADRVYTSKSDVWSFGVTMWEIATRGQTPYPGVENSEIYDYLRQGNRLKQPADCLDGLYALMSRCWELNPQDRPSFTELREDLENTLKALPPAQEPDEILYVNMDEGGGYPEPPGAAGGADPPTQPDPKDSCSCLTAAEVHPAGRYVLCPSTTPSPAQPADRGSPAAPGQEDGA
Kind of experiment: Phospho-Akt in-cell Western assay (inhibition of Axl activity). Type of experiment: cell-based. The following applies: Table 3; Hela cells, Axl antibody cross-linking stimulation, phospho-Akt chemiluminescence. In a few lines:
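HeLa cells on poly-L-lysine, starved 24 h in 0.5% FCS DMEM with Axl/Fc 500 ng/mL, pre-treated with compound 1 h at 37° C. Axl stimulated 5 min by anti-Axl/anti-mouse antibody cross-linking. Fixed cells probed with anti-phospho-Akt and HRP secondary, chemiluminescence read.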
`CC(=O)n1nc(Nc2ccc3c(c2)OCCO3)nc1N` [compound 261, 1-Acetyl-5-amino-3-(1,4-benzodioxan-6-yl)amino-1H-1,2,4-triazole]: the IC50 – broadly, the point on the concentration scale where inhibition reaches its midpoint – is above 20 µM.
Still for that read-out and setting: under `Nc1nc(Nc2ccc(OCCN3CCOCC3)cc2)nn1C(=O)c1ccc2cc[nH]c2c1` [compound 265, 5-amino-1-(1H-indol-6-yl)carbonyl-3-[4-[2-(morpholin-4-yl)ethoxy]phenylamino]-1H-1,2,4-triazole] stands below 1 µM; under `Nc1nc(Nc2ccc(OCCN3CCCC3)cc2)nn1C(=O)c1ccc2ncsc2c1` [compound 271, 5-amino-1-(benzo[d]thiazol-6-yl)carbonyl-3-[4-[2-(pyrrolidin-1-yl)ethoxy]phenylamino]-1H-1,2,4-triazole], 1 to 10 µM.

The same experiment, now with this note: Table 5; Hela cells, Axl antibody cross-linking stimulation, phospho-Akt chemiluminescence.
In the case of `Cc1cccc(C(=O)n2nc(Nc3ccc4ncsc4c3)nc2N)c1` [compound 250, 5-amino-3-(benzothiazol-6-yl)amino-1-(3-methylphenyl)carbonyl-1H-1,2,4-triazole], the IC50 fell in the range of 1 to 10 µM.
The same measure, in the same setting: under `Cc1cccc(C(=O)n2nc(Nc3ccc4ncccc4c3)nc2N)c1` [compound 251, 5-amino-1-(3-methylphenyl)carbonyl-3-(6-quinolinyl)amino-1H-1,2,4-triazole] stands 1 to 10 µM; under `Cc1cccc(C(=O)n2nc(Nc3ccc4[nH]ccc4c3)nc2N)c1` [compound 252, 5-amino-3-(1H-indol-5-yl)amino-1-(3-methylphenyl)carbonyl-1H-1,2,4-triazole], 1 to 10 µM.
For the molecule `Cc1cccc(C(=O)n2nc(Nc3ccc4cn(C)nc4c3)nc2N)c1` [compound 253, 5-amino-3-(1H-2-methyl-indazol-6-yl)amino-1-(3-methylphenyl)carbonyl-1H-1,2,4-triazole], the IC50 lay in the range of 1 to 10 µM.
On the same count and under the same terms, under `Cc1cccc(C(=O)n2nc(Nc3ccc4cnn(C)c4c3)nc2N)c1` [compound 254, 5-amino-3-(1H-1-methyl-indazol-6-yl)amino-1-(3-methylphenyl)carbonyl-1H-1,2,4-triazole] stands above 20 µM; under `Cc1cccc(C(=O)n2nc(Nc3ccc4[nH]c(C)cc4c3)nc2N)c1` [compound 255, 5-amino-3-(1H-2-methyl-indol-5-yl)amino-1-(3-methylphenyl)carbonyl-1H-1,2,4-triazole], 1 to 10 µM.
`Cc1cccc(C(=O)n2nc(Nc3nc4ccccc4s3)nc2N)c1` [compound 256, 5-amino-3-(benzothiazol-2-yl)amino-1-(3-methylphenyl)carbonyl-1H-1,2,4-triazole]: the IC50 is above 20 µM.
Still for that read-out and setting: under `Cc1cccc(C(=O)n2nc(Nc3ccc4sncc4c3)nc2N)c1` [compound 259, 5-amino-3-(1,2-benzisothiazol-5-yl)amino-1-(3-methylphenyl)carbonyl-1H-1,2,4-triazole] stands above 20 µM; under `Cc1cccc(C(=O)n2nc(Nc3ccc4snc(C)c4c3)nc2N)c1` [compound 260, 5-amino-3-(3-methyl-1,2-benzisothiazol-5-yl)amino-1-(3-methylphenyl)carbonyl-1H-1,2,4-triazole], above 20 µM.

The same experiment, now with this note: inhibition of Axl activity, Table 1.
Regarding `N#Cc1ccc(C(=O)n2nc(Nc3ccc4c(c3)OCCO4)nc2N)cc1` [compound 245, 5-amino-1-(4-cyanophenyl)carbonyl-3-(1,4-benzodioxan-6-yl)amino-1H-1,2,4-triazole], the IC50 was above 20 µM.
Still for that read-out and setting: next, `CC(=O)Nc1ccc(C(=O)n2nc(Nc3ccc4c(c3)OCCO4)nc2N)cc1` [compound 246, 1-[(4-Acetylamino)phenyl]carbonyl-5-amino-3-(1,4-benzodioxan-6-yl)-amino-1H-1,2,4-triazole]: 1 to 10 µM; `CN(C)c1ccc(C(=O)n2nc(Nc3ccc4c(c3)OCCO4)nc2N)cc1` [compound 247, 5-amino-1-[(4-dimethylamino)phenyl]carbonyl-3-(1,4-benzodioxan-6-yl)amino-1H-1,2,4-triazole]: 1 to 10 µM.
The same measure, in the same setting: next, `CS(=O)(=O)c1ccc(C(=O)n2nc(Nc3ccc4c(c3)OCCO4)nc2N)cc1` [compound 248, 5-amino-3-(1,4-benzodioxan-6-yl)amino-1-[(4-methylsulfonyl)phenyl]carbonyl-1H-1,2,4-triazole]: above 20 µM.
Same read-out and setting: next, `Cc1ccc(C(=O)n2nc(Nc3ccc4c(c3)OCCO4)nc2N)cc1Cl` [compound 249, 5-amino-1-[(3-chloro-4-methyl)phenyl]carbonyl-3-(1,4-benzodioxan-6-yl)-amino-1H-1,2,4-triazole]: above 20 µM.
Regarding `COc1ccc(C(=O)n2nc(Nc3ccc4c(c3)OCCO4)nc2N)cc1C` [compound 257, 5-amino-3-(1,4-benzodioxan-6-yl)amino-1-(3-methyl-4-methoxy)phenylcarbonyl-1H-1,2,4-triazole], the IC50 lay within 1 to 10 µM.
Still for that read-out and setting: under `Cc1cc(C(=O)n2nc(Nc3ccc4c(c3)OCCO4)nc2N)ccc1OC(C)C` [compound 258, 5-amino-3-(1,4-benzodioxan-6-yl)amino-1-(3-methyl-4-iso-propoxy)phenylcarbonyl-1H-1,2,4-triazole] stands 1 to 10 µM.

Staying with this experiment, now noted: inhibition of Axl activity, phospho-Akt in-cell Western assay; Table 1.
As for `Nc1nc(Nc2ccc(OCCN3CCCC3)c(F)c2)nn1C(=O)c1ccc(N2CCOCC2)cc1` [compound 262, 5-amino-3-[4-[2-(pyrrolidin-1-yl)ethoxy]-3-fluorophenyl]amino-1-[4-(morpholin-4-yl)phenyl]carbonyl-1H-1,2,4-triazole], the IC50 was below 1 µM.
On the same count and under the same terms, under `CC(C)(C)c1ccc(C(=O)n2nc(Nc3cccc(-c4cnco4)c3)nc2N)cc1` [compound 263, 5-amino-1-(4-(tert-butyl)phenyl)carbonyl-3-[3-(1,3-oxazol-5-yl)phenylamino]-1H-1,2,4-triazole] stands 1 to 10 µM; under `CC(C)(C)Oc1ccc(C(=O)n2nc(Nc3cccc(-c4cnco4)c3)nc2N)cc1` [compound 264, 5-amino-1-(4-(tert-butoxy)phenyl)carbonyl-3-[3-(1,3-oxazol-5-yl)phenylamino]-1H-1,2,4-triazole], 1 to 10 µM.
Consider `CC(C)(C)c1ccc(C(=O)n2nc(Nc3ccc(OCCN4CCOCC4)cc3)nc2N)cc1` [compound 266, 5-amino-1-(4-(tert-butyl)phenyl)carbonyl-3-[4-[2-(morpholin-4-yl)ethoxy]phenylamino]-1H-1,2,4-triazole], for which the IC50 is below 1 µM.
As to `CC(C)(C)Oc1ccc(C(=O)n2nc(Nc3ccc(OCCN4CCOCC4)cc3)nc2N)cc1` [compound 267, 5-amino-1-(4-(tert-butoxy)phenyl)carbonyl-3-[4-[2-(morpholin-4-yl)ethoxy]phenylamino]-1H-1,2,4-triazole], the IC50 was below 1 µM.
Take `Nc1nc(Nc2ccc(OCCN3CCCC3)cc2)nn1C(=O)c1ccc(-n2ccnc2)cc1` [compound 268, 5-amino-1-(4-(imidazol-1-yl)phenyl)carbonyl-3-[4-[2-(pyrrolidin-1-yl)ethoxy]phenylamino]-1H-1,2,4-triazole]: the IC50 was below 1 µM.
Still for that read-out and setting: next, `Nc1nc(Nc2ccc(OCCN3CCCC3)cc2)nn1C(=O)c1ccc(Oc2ccccc2)cc1` [compound 269, 5-amino-1-(4-(phenoxy)phenyl)carbonyl-3-[4-[2-(pyrrolidin-1-yl)ethoxy]phenylamino]-1H-1,2,4-triazole]: below 1 µM; `CC(C)(C)OC(=O)Nc1ccc(C(=O)n2nc(Nc3ccc(OCCN4CCCC4)cc3)nc2N)cc1` [compound 270, 5-amino-1-(4-(tert-butoxycarbonylamino)phenyl)carbonyl-3-[4-[2-(pyrrolidin-1-yl)ethoxy]phenylamino]-1H-1,2,4-triazole]: below 1 µM.
